Data taken from patent US5268465A, “Purification and molecular cloning of nitric oxide synthase” (The Johns Hopkins University, priority 1991, dated 1993).
One block for each compound: values may come before it.

Key:
[1] = target: T1, NO synthase (Rattus norvegicus, UniProt P0DP29+P29476); assay: NO synthase activity, conversion of [3H]arginine to [3H]citrulline, purified enzyme; type: biochemical; conditions: for EC50: read-out: EC50 for enhancement/stimulation of enzyme activity; for IC50: read-out: Calmodulin antagonists, IC50
[2] = target: T2, NO synthase activity in crude brain supernatant preparations (Rattus norvegicus, UniProt P29476); assay: NO synthase activity, conversion of [3H]arginine to [3H]citrulline, crude cerebellar/brain supernatant preparations; type: biochemical
T2 construct: not recombinant
Method: (§1) This example describes the method by which NOS activity was assayed. […] After incubation for 5 min at 22° C., assays were terminated with 2 ml of 20 mM Hepes, pH 5.5/2 mM EDTA, and were applied to 1-ml columns of Dowex A[…]-8 (Na^+ form), which were eluted with 2 ml of water. [^3 H]Citrulline was quantified by liquid scintillation spectroscopy of the 4-ml flow-through.

[3] = target: T1, NO synthase; assay: Effects of varying calcium, calmodulin and NADPH on NO synthase activity; type: biochemical
Method: After incubation for 5 min at 22° C., assays were terminated with 2 ml of 20 mM Hepes, pH 5.5/2 mM EDTA, and were applied to 1-ml columns of Dowex A[…]-8 (Na^+ form), which were eluted with 2 ml of water. [^3 H]Citrulline was quantified by liquid scintillation spectroscopy of the 4-ml flow-through.

[4] = target: NO synthase activity in crude brain supernatant preparations (Rattus norvegicus, UniProt P0DP29); assay: NO synthase activity, conversion of [3H]arginine to [3H]citrulline, crude cerebellar/brain supernatant preparations; type: biochemical; conditions: crude brain supernatant preparations; read-out: IC50, inhibition of NO synthase activity
Method: as §1

[5] = target: T3, NO synthase (Rattus norvegicus, UniProt P29476); assay: Restoration of enzyme activity of DEAE eluate fractions; type: biochemical
T3 construct: Eighteen rat cerebella were homogenized; from tissue; host or cells: rat cerebella (supernatant, DEAE eluate, 2',5'-ADP agarose eluate)
Method: Eighteen rat cerebella were homogenized in 100 ml of ice-cold buffer A [50 mM Tris-HCl, pH 7.4/1 mM EDTA/antipain (10 mg/liter)/leupeptin (10 mg/liter)/soybean trypsin inhibitor (10 mg/liter)/pepstatin (10 mg/liter)/chymostatin (10 mg/liter)/phenylmethylsulfonyl fluoride (100 mg/liter)], and all subsequent procedures were carried out at 4° C. The homogenate was centrifuged at 20,000×g for 15 min, and the supernatant was loaded at 2 ml/min onto a 20-ml column of diethylminoethyl (DEAE) equilibrated with buffer A. The column was washed with 50 ml of buffer A and eluted with a 100-ml linear gradient of 0-400 mM NaCl in buffer A. Fractions (2.5 ml) were assayed for enzyme activity.
In our preliminary efforts to purify NO synthase, we observed that enzymatic activity adheres to a DEAE column and can be eluted by 1M NaCl. […] Since NO formation requires Ca^2+, we speculated that calmodulin might be involved. […] NO synthase activity elutes in one sharp, major peak followed by a smaller peak of activity, which is observed reproducibly in multiple experiments.

[6] = target: T3, NO synthase; assay: Storage stability of NO synthase activity; type: physicochemical
Method: After incubation for 5 min at 22° C., assays were terminated with 2 ml of 20 mM Hepes, pH 5.5/2 mM EDTA, and were applied to 1-ml columns of Dowex AG502X-8 (Na^+ form), which were eluted with 2 ml of water. [^3 H]Citrulline was quantified by liquid scintillation spectroscopy of the 4-ml flow-through.
The purified enzyme is unstable. When stored at 0° C., 50% of the enzyme activity is lost in 2 hr, whereas the crude supernatant preparation loses 50% activity at 0° C. in 2 days. Stability is enhanced by storing the enzyme in bovine serum albumin (1 mg/ml)/20% (vol/vol) glycerol at -70° C. When stored in this way, the enzyme loses<50%activity in 7 days.

[7] = target: T3, NO synthase; assay: Specific activity of fractions during purification of NO synthase; type: biochemical; conditions: typical purification, repeated five times

T1 sequence (P29476 whole entry, one chain of several): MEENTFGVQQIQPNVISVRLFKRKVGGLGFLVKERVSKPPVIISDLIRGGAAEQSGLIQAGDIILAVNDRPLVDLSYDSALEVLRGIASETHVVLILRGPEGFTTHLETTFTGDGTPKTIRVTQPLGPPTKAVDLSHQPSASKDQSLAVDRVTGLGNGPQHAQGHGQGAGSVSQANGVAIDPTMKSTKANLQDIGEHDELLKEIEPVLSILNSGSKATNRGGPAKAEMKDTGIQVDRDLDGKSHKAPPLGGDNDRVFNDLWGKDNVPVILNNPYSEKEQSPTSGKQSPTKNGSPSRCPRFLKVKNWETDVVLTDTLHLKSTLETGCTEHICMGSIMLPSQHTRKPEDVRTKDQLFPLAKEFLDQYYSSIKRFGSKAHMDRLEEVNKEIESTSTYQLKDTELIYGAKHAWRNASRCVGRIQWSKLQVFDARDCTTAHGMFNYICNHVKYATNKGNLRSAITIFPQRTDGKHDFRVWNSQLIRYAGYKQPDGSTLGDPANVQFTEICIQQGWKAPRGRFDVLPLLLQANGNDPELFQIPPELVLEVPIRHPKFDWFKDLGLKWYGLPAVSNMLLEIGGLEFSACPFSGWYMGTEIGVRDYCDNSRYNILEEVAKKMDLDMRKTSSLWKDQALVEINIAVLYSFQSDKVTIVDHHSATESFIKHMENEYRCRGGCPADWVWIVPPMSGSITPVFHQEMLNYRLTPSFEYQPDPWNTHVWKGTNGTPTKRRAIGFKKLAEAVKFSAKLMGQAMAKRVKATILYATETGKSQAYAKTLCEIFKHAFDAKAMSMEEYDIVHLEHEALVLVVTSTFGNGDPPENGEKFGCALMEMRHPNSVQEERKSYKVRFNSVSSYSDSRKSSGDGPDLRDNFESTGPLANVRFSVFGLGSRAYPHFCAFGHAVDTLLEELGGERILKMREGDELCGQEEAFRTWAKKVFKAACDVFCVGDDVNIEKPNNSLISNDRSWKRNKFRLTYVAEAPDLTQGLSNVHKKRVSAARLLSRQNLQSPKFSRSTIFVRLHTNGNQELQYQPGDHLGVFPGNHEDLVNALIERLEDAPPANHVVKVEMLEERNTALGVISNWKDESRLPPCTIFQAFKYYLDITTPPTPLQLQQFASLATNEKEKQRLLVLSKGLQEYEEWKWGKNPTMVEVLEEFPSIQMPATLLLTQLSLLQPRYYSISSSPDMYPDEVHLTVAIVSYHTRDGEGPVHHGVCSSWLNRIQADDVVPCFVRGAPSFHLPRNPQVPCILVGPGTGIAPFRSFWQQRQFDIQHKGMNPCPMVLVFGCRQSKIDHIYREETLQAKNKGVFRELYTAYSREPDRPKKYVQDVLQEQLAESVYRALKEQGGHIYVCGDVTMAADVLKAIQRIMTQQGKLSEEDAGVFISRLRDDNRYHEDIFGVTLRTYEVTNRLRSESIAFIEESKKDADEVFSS

Compound: [Ca+2] [Ca^2+, calcium]
- EC50 [1]: 0.2 µM
- EC50 compared with crude preparations ([2]; crude preparations): the same in the pure and crude preparations
- Concentration of maximal enhancement of activity [3]: 1 µM
- Stimulation in the absence of NADPH ([3]; absence of NADPH): fails to stimulate NO synthase activity
- Activity at high Ca2+ ([3]; concentrations exceeding 100 μM Ca2+): some reduction in activity

Compound: Calmodulin
- EC50 [1]: 0.01 µM
- Influence of added calmodulin on enzyme activity ([2]; crude cerebellar supernatant preparations, calmodulin 1 μM): no influence on enzyme activity
- Stimulation of NO synthase activity ([3]; FIG. 2A): extremely potent stimulator of NO synthase activity
- Effect of addition to DEAE eluate fractions on enzyme activity [5]: restores enzyme activity
- Effect on stability of the enzyme ([6]; presence of calmodulin): Stability is also enhanced

Compound: NO synthase: calmodulin-dependent nitric oxide synthase purified to homogeneity from rat cerebella by DEAE and 2',5'-ADP agarose chromatography
- Vmax ([1]; Table 2): 0.96 μmol per min per mg of protein
- Specific activity [7]: 960 nmol/mg/min
- Enzyme activity lost on storage ([6]; bovine serum albumin (1 mg/ml)/20% (vol/vol) glycerol at -70° C., 7 days): < 50%
- Time to loss of 50% of the enzyme activity ([6]; stored at 0° C.): 2 h

Second part, the compound after the results:

- IC50 [1]: 25 µM
- IC50 [4]: 50 µM
Compound: NCCCCCCNS(=O)(=O)c1cccc2ccccc12 [W-5]

- IC50 [1]: 70 µM
- IC50 [4]: 25 µM
Compound: NCCCCNS(=O)(=O)c1ccc2c(Cl)cccc2c1 [W-13]
